From publication PMC6030096, “Synergy of Physico-chemical and Biological Experiments for Developing a Cyclooxygenase-2 Inhibitor” (Scientific Reports, 2018)
Read-outs that look alike come from different tables or passages of the source.

How the values were obtained:
Assay type in all cases: biochemical
[1] = target: T1, 5-LOX (Soybean lipoxygenase) (Glycine max, UniProt P08170); experiment: Lipoxygenase inhibitory activity assay
T1 construct: purchased Cayman Chemical Co. 760700
T1 sequence (P08170 1-839): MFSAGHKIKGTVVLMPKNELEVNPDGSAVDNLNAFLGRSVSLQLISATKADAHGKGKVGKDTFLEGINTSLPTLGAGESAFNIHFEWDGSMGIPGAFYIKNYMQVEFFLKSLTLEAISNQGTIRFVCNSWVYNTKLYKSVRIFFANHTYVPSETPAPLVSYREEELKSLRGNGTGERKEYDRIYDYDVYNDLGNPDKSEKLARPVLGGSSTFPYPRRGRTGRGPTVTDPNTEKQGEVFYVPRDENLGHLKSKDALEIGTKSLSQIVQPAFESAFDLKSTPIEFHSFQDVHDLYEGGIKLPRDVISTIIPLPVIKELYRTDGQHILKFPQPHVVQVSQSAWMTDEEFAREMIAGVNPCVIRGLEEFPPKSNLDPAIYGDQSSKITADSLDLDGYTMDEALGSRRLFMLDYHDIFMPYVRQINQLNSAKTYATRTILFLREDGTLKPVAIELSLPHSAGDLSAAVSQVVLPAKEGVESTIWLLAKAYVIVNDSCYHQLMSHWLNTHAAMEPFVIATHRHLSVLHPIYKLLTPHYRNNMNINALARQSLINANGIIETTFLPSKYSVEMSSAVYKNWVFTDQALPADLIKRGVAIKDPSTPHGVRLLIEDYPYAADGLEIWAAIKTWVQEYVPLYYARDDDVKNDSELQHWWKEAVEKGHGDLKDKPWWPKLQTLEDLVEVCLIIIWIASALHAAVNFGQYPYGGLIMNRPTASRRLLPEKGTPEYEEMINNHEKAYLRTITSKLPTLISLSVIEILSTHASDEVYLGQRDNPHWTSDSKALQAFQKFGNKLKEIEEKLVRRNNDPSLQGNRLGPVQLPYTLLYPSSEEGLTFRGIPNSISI
Method: 10 µL of the compound of each concentration was mixed with 90 µL 5-LOX (Soybean lipoxygenase in assay buffer) in the specified wells of the 96-well plate. Two wells containing assay buffer and AA acted as blanks whereas four wells, each carrying enzyme and AA, were positive controls. 10 µL AA was added to each test well and the plate was shaken for 5 min. Chromogen (100 µL) was added to each well and the plate was again shaken for 5 min. The absorbance of each well at 490 nm was recorded on microplate scanning spectrophotometer. As per the protocol given with the assay kit, the 5-LOX inhibitory activity for each compound at each concentration was determined using the mean of the two values (duplicate experiments) with deviation <5%.

[2] = target: T2, COX-1 (Ovis aries, UniProt P05979); experiment: COX-1 enzyme immunoassay (Cayman inhibitor screening kit)
T2 construct: purchased Cayman Chemical Co. 560131
T2 sequence (P05979 25-600): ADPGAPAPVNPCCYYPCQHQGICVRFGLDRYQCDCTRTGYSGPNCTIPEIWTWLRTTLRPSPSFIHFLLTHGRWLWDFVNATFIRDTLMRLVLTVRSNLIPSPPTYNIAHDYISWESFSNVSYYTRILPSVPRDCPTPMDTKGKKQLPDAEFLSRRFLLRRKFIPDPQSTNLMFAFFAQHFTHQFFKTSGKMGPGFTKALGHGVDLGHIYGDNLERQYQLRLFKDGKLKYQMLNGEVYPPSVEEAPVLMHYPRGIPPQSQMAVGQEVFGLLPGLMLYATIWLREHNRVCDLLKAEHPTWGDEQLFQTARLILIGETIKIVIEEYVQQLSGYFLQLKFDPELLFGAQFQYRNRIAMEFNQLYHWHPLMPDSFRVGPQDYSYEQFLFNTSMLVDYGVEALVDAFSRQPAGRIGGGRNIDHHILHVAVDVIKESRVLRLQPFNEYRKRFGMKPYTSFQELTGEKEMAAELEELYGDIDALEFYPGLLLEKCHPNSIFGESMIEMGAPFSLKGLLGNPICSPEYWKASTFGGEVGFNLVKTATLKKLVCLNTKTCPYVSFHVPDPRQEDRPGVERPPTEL
Method: (§1) Principally, the catalytic activity of COX-1/2 is slowed down in the presence of its inhibitor and quantitatively, it is inversely proportional to the amount of prostaglandin produced in the presence of inhibitor.
(§2) The enzyme inhibition screening assay kits for COX-1/2 and 5-LOX with item no. […] The 100% initial activity tubes for the two enzymes contained 10 µL heme and 10 µL of the enzyme in 160 µL reaction buffer. Then 10 µL inhibitor (compound of above mentioned concentrations) was added to the inhibitor tubes for the two enzymes and 10 µL of vehicle (DMSO) was added to 100% initial activity and background tubes. All the tubes were incubated for 10 min at 37 °C and the reaction was started by adding 10 µL arachidonic acid to all the reaction tubes. After incubation of the reaction vials for 2 min at 37 °C, the enzyme catalysis was stopped by adding 30 µL saturated stannous chloride solution to each test tube and solutions were kept at 0–4 °C. For EIA (enzyme immunoassay) procedure: the EIA buffers and assay specific reagents were prepared as written in the manual. In the COX dilutions, two test tubes labelled as BC1 and BC2 were taken to prepare background samples. Each tube contained 990 µL of EIA buffer and 10 µL of background COX-1 for BC1 and 10 µL of background COX-2 for BC2. The samples for 100% initial activity were diluted in three vials labelled IA1, IA2 and IA3 for each enzyme. IA1 contained 990 µL EIA buffer and 10 µL enzyme, IA2 has 950 µL buffer and 50 µL solution of IA1 (1:2000 dilution of original sample) and IA3 carried 500 µL of buffer and 500 µL of IA2 solution (1:4000 dilution of original sample). Each solution was thoroughly mixed. Solutions of IA2 and IA3 were used for the assaying. […] C2 contained 950 µL buffer and 50 µL solution of C1 (1:2000 dilution of original sample) and vial C3 was charged with 500 µL buffer and 500 µL solution from C2 (1: 4000 dilution of original sample). Only C2 and C3 were run in the assay. After all the reaction dilutions, these were then subjected to 96 wells plate. The wells were divided as: 2 blank wells, 2 NSB wells (non-specific binding), 3 B0 wells (maximum binding), one TA well (total activity), 16 wells for standards (S1–S8 in repeat), 2 BC1 and 2 BC2 wells. Compounds (inhibitors) were put in all the other wells. The sequence for the addition of reagents onto the plate was as per the protocol of the assay kit. […] For developing the plate; it was emptied and washed with wash buffer 5 times followed by the addition of 200 µL Ellman’s reagent to each well. 5 µL tracer was added to the TA well. Then the plate was covered and left for 60 mins for development in dark. After the respective time period the cover was removed and the plate was read at 420 nm. %B/Bo (i.e. % sample or maximum bound) value for standards S1-S8 and each sample was determined from the absorbance values obtained according to the calculation given in the protocol. The amount of prostaglandins formed during the enzymatic reaction was calculated from the values of %B/Bo for all the compounds at all concentrations with the help of the standard curve (plotted between %B/Bo of standards and raw data given in the protocol). Then the prostaglandin formed at each concentration of all the compounds and percentage inhibition values were calculated. The graph between percent inhibition of the enzyme and corresponding concentration of the compound provided IC50 values for the compounds.

[3] = target: T3, COX-2 (Homo sapiens, UniProt P35354); experiment: COX-2 enzyme immunoassay (Cayman inhibitor screening kit); design: purchased Cayman Chemical Co. 560131; details: for Selectivity index: SI = IC50 (COX-1)/ IC50 (COX-2); for IC50: enzyme immunoassay, average of three experiments
T3 sequence (P35354 18-604): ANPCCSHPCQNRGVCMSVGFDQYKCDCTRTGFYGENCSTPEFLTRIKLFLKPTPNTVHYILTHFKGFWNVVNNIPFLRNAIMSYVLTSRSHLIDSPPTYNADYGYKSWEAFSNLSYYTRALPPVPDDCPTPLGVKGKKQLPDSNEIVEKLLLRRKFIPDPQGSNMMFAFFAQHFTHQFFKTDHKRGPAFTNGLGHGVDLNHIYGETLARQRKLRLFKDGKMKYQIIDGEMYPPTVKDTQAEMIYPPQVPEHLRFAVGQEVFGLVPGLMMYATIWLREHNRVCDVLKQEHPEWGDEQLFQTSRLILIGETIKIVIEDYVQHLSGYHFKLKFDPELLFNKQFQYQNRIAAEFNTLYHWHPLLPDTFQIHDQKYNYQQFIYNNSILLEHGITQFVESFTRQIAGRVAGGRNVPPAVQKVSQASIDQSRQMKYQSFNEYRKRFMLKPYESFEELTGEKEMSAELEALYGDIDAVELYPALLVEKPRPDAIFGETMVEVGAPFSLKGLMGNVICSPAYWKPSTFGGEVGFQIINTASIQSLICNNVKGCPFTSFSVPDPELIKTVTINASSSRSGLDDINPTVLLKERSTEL
Method: as §1, §2

[4] = soybean lipoxygenase, duplicate, read-out: IC50 5-LOX
[5] = enzyme immunoassay, average of three experiments, read-out: IC50 COX-1

Row | Compound | IC50 [1, 4] [nM] | IC50 [2, 5] [nM] | Selectivity index [3] | IC50 [3] [nM] | IC50 [1] [nM] | IC50 [2] [nM]
1 | CC1=NN(c2cccc(Cl)c2)C(=O)C1=Cc1cn(C[C@@H](O)Cn2c3ccccc3c(=O)c3ccccc32)c2ccccc12 [(R)-3e] | 300 ± 130 |  |  |  |  | 
2 | O=C1C(=Cc2cn(C[C@@H](O)Cn3c4ccccc4c(=O)c4ccccc43)c3ccccc23)c2ccccc2N1c1c(Cl)cccc1Cl [(R)-3d] | 100 ± 60 | > 10000 |  |  |  | 
3 | O=C1C(=Cc2cn(C[C@H](O)Cn3c4ccccc4c(=O)c4ccccc43)c3ccccc23)c2ccccc2N1c1c(Cl)cccc1Cl [(S)-3d] | 600 ± 39 | 60000 ± 4500 | 10 | 6000 ± 500 |  | 
4 | O=C1Nc2ccccc2C1=Cc1cn(C[C@@H](O)Cn2c3ccccc3c(=O)c3ccccc32)c2ccccc12 [(R)-3c] | 600 ± 42 | 8000 ± 380 | 0.1 | 80000 ± 7000 |  | 
5 | O=C1NC(=O)C(=Cc2cn(C[C@@H](O)Cn3c4ccccc4c(=O)c4ccccc43)c3ccccc23)C(=O)N1 [(R)-3a] |  |  |  |  | 1000 ± 100 | 
6 | O=C1Nc2ccccc2C1=Cc1cn(CCCCn2c3ccccc3c(=O)c3ccccc32)c2ccccc12 [Compound 4d] | 200 ± 90 | 4000 ± 180 | 1.33 | 3000 ± 220 |  | 
7 | CC1=NN(c2cccc(Cl)c2)C(=O)C1=Cc1cn(CCCn2c3ccccc3c(=O)c3ccccc32)c2ccccc12 [Compound 4e] | 400 ± 15 | > 10000 | >1.11 | 9000 ± 550 |  | 
8 | CN1C(=O)C(=Cc2cn(C[C@@H](O)Cn3c4ccccc4c(=O)c4ccccc43)c3ccccc23)C(=O)N(C)C1=O [(R)-3b] |  |  | 10 | 100 ± 70 | 2000 ± 180 | 1000 ± 200
9 | O=C1NC(=O)C(=Cc2cn(CCCCn3c4ccccc4c(=O)c4ccccc43)c3ccccc23)C(=O)N1 [Compound 4b] |  |  |  | 8000 ± 420 | 70 ± 22 | > 10000
10 | CC1=NN(c2cccc(Cl)c2)C(=O)C1=Cc1cn(CCCCn2c3ccccc3c(=O)c3ccccc32)c2ccccc12 [Compound 4f] | 100 ± 70 |  |  | 40000 ± 3800 |  | 
11 | CN1C(=O)C(=Cc2cn(C[C@H](O)Cn3c4ccccc4c(=O)c4ccccc43)c3ccccc23)C(=O)N(C)C1=O [(S)-3b] |  |  |  | 300 ± 180 | 90 ± 12 | 700 ± 50
12 | CC1=NN(c2cccc(Cl)c2)C(=O)C1=Cc1cn(C[C@H](O)Cn2c3ccccc3c(=O)c3ccccc32)c2ccccc12 [(S)-3e] | 700 ± 38 |  |  |  |  | 
